The text below walks through data of paper PMC8615109, “Assessment of Micafungin Dosage Regimens in Patients with Cancer Using Pharmacokinetic/Pharmacodynamic Modeling and Monte Carlo Simulation” (Antibiotics, 2021).

One data set is described as follows: clinical. Format: in vivo, human (adult patients). The note with it: population estimate; for clearance: both sexes, human, in vivo, iv, two-compartment population model (Monolix 4.4), plasma HPLC-UV. The method, then: This was a prospective pharmacokinetic study to compare adult patients with and without cancer. The study was conducted at King Saud University Medical City, a tertiary hospital. The study included male and female patients aged ≥ 18 years, who were admitted to the hospital and received a minimum of 2 micafungin doses based on empirical evidence or culture results. Patients who were pregnant and those with a micafungin allergy were excluded. The study protocol was approved by the Institutional Review Board of King Saud University Medical City (E-18-3373), and written informed consent was obtained from all patients before their inclusion in the study.
All patients were treated with a 100–150 mg daily dose of micafungin for empirical use or confirmed fungal infection. Micafungin was diluted in 100 mL isotonic saline solution and infused over 60 min. Blood samples were drawn at 1, 2, 4, 6, 8, 12, and 24 h from the initiation of the micafungin dose. All blood samples were centrifuged, and plasma samples were stored at −80 °C until analysis.
Plasma micafungin concentrations were determined using a high-performance liquid chromatography (HPLC) method with a UV detection system, with slight modification. Plasma samples were separated from whole blood, acidified with phosphoric acid, precipitated with acetonitrile, and centrifuged prior to dilution with buffer and injection into an HPLC system. Anidulafungin served as I.S. for micafungin. The method was fully validated and achieved using an isocratic Prominence Shimadzu HPLC system (Shimadzu, Columbia, MD, USA), which comprised an autosampler (SIL-20AHT), a UV detector (Shimadzu UV SPD-20A), and a pump (LC-20AB) connected to a degasser (Dgu-20A3). The separation of micafungin was performed on a Phenomenex Luna C18 column (250 × 4.6 mm i.d., 5 µm; Phenomenex, CA). The mobile phase comprised 0.1% (w/w) ammonium acetate in water, with pH adjusted to 7.0 with 25% NH3 solution and acetonitrile (70%:30%); the flow rate was 1 mL/min, and micafungin was detected at 273 nm. Data acquisition was achieved using LC Solution chromatographic software version 1.22 SP1 (Shimadzu, Columbia, MD, USA).
Data from patients with and without cancer were comodeled using Monolix 4.4 software (Supplementary File S1). Monolix estimates pharmacokinetic parameters using the stochastic approximation expectation maximization algorithm. In the first step, we developed the base structural model for micafungin by fitting various compartmental models to plasma drug concentrations. The following criteria were followed to select between models: (a) a decrease in the minimum of the objective function value (log-likelihood value); (b) precision of the parameter estimation expressed as RSE (%) and calculated as the ratio between the standard error and final parameter estimate; (c) physiologic plausibility; and (d) GOF plots including observed and predicted concentrations, residuals plot, and visual predictive check.
A covariate model was developed in a stepwise fashion, with forward inclusion based on model selection criteria. First, we plotted the empirical Bayesian estimates vs. covariates to screen for potentially significant correlations. Next, we performed a stepwise regression analysis to test the significant covariates identified in step 1, using the −2 log-likelihood ratio test. Age, body weight, height, BMI, sex, serum creatinine, creatinine clearance, sequential organ failure assessment score, and levels of AST, alanine transaminase, total bilirubin, and albumin were tested as covariates.
GOF was assessed using the log-likelihood criterion during model building. Plots of model-based individual and population predictions vs. the observed concentrations were performed for model assessment. A predicted–corrected visual predictive check using 1000 simulations was constructed to study the performance of the final model. […]

The conditions of data set [1]: cited from earlier work. The source says:
Micafungin is metabolized in the liver by catechol O-methyltransferase, arylsulfatase, and hydroxylation. Only 1% of the unchanged drug is excreted through the kidneys. […] The elimination pharmacokinetics of micafungin in patients with advanced hepatic insufficiency are not fully understood. […] We described the plasma concentration-time curve of micafungin using a two-compartment model, similar to that described in previous studies. […] Overall, there were no differences in the ...

Setting [2] is: patients with cancer (n = 10), 100 mg/day i.v.
[3] abbreviates: patients without cancer (n = 9), 100-150 mg/day i.v.

Structures are written as SMILES. Numbered stars: 1 amine (or outer) side, 2 acyl side, 3 side chain; on linkers, the order of the positions; unused ones are H or OH. Bridge positions count the residues as written; N and C are the ends. Square brackets hold non-standard residues; d marks the D form. Peptide text beside a SMILES is read from it. * marks the point of attachment. hTyr(3S-OH,4S-OH,3'-OSO3H) = N[C@H](C(=O)O)[C@H](O)[C@@H](O)c1ccc(O)c(OS(=O)(=O)O)c1; Orn(4R-OH,5R-OH) = O=C([C@H](C[C@@H](O)[C@@H](O)N[*:3])N[*:1])[*:2]; Pro(3S-OH,4S-Me) = C[C@H]1CN[C@H](C(=O)O)[C@H]1O; X1 = CCCCCOc1ccc(-c2cc(-c3ccc(C(=O)*)cc3)no2)cc1; Gln(3R-OH) = NC(=O)C[C@@H](O)[C@H](N)C(=O)O; Hyp = O=C(O)[C@@H]1C[C@@H](O)CN1

`CCCCCOc1ccc(-c2cc(-c3ccc(C(=O)N[C@H]4C[C@@H](O)[C@@H](O)NC(=O)[C@@H]5[C@@H](O)[C@@H](C)CN5C(=O)[C@H]([C@H](O)CC(N)=O)NC(=O)[C@H]([C@H](O)[C@@H](O)c5ccc(O)c(OS(=O)(=O)O)c5)NC(=O)[C@@H]5C[C@@H](O)CN5C(=O)[C@H]([C@@H](C)O)NC4=O)cc3)no2)cc1` [micafungin] (X1-[Orn(4R-OH,5R-OH)]T[Hyp][hTyr(3S-OH,4S-OH,3'-OSO3H)][Gln(3R-OH)][Pro(3S-OH,4S-Me)]; lactam 1-C): the clearance in the data set “clinical” (patients with cancer (n = 10), 100 mg/day i.v. infusion over 60 min) was 20 mL/min; in “clinical” (patients without cancer (n = 9), 100-150 mg/day i.v. infusion over 60 min), 10 mL/min. The “Q (intercompartmental clearance)” value in the data set “clinical” (setting [2]) is recorded as 0.144 L/h; in “clinical” (setting [3]), 0.188 L/h. Further, the results for the “V1 (volume of the central compartment)” value in the data set “clinical” (setting [2]) and in the data set “clinical” (setting [3]) were 10.7 L and 12 L, respectively. Besides, the “V2 (volume of the peripheral compartment)” value in the data set “clinical” (setting [2]) was 3.5 L; in “clinical” (setting [3]) it was 2.77 L. In data set [1] (adults), the terminal half-life entry is recorded as “approximately 15 h”. Also, in data set [1], the “unchanged drug excreted through the kidneys” value is 1%.
